SMILES strings stand for the structures.

For the assay, the target named is Mitogen-activated protein kinase kinase kinase 12 (Homo sapiens) (UniProt Q12852). The assay is described as follows: Binding affinity to DLK (unknown origin) assessed as inhibition constant.
Chain of Mitogen-activated protein kinase kinase kinase 12 (Homo sapiens) (Q12852 whole entry, looked up): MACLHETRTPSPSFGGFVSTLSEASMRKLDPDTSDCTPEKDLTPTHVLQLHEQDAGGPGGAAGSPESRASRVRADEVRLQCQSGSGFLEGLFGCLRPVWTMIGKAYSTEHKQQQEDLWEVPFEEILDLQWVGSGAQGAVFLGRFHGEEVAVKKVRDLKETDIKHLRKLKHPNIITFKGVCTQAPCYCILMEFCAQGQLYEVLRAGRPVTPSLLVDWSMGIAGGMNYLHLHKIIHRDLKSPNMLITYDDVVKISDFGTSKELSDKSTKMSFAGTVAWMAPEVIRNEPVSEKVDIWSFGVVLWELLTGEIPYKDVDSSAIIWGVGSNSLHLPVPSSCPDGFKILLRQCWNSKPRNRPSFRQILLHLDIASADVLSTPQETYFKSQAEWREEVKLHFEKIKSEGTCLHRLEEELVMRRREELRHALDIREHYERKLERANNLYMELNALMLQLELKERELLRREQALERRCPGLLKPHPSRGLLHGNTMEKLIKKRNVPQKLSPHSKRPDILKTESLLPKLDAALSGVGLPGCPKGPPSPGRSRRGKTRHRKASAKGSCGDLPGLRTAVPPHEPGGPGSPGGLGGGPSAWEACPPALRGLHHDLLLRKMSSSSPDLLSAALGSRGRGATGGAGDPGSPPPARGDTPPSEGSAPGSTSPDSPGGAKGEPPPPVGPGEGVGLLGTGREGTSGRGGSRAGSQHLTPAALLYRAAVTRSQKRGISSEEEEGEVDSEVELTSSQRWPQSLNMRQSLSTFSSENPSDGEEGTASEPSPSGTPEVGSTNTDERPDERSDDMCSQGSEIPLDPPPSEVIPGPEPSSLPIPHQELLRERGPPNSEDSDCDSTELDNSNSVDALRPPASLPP

As a reminder, the Ki is a measure of affinity in units of concentration, obtained from inhibition or displacement. As for `CC(=O)N1CCC(c2cc(Nc3cc(C#N)ccn3)nc(N3CCC(F)(F)C3)c2)CC1`, the inhibition constant Ki was 25 nM.

Values taken from BindingDB's records for PubMed 37713805 (University of Michigan).
